Experimental data taken from patent US20150291610A1, “C20' Urea Derivatives of Vinca Alkaloids” (THE SCRIPPS RESEARCH INSTITUTE, priority 2012, published 2015).
Like-named read-outs stand apart in the source and are kept apart here.

Key:
[1] = tested on: HCT116/VM46 (vinblastine-resistant strain of HCT116, Pgp over-expression) cells; conditions: read-out: IC50 (nM) HCT116/VM46; reported in Leggans et al., Org. Lett. 2012; cited from earlier work
[2] = tested on: HCT116 (human colorectal carcinoma) cells; conditions: cited from earlier work; for IC50: reported in Leggans et al., Org. Lett. 2012
[3] = tested on: L1210 (mouse lymphocytic leukemia) cells; conditions: reported in Leggans et al., Org. Lett. 2012; cited from earlier work
[4] = tested on: HCT116 (human colorectal carcinoma) cells; test: Cell growth inhibition assay, HCT116; assay type: cell-based; conditions: for fold more potent than vinblastine, HCT116: relative to vinblastine
Protocol: (§1) A population of cells (>1×10^6 cells/mL as determined with a hemocytometer) was diluted with an appropriate amount of Dulbecco-modified Eagle Medium (DMEM, Gibco) containing 10% fetal bovine serum (FBS, Gibco) to a final concentration of 30,000 cells/mL.
(§2) To each well of a 96-well plate (Corning Costar), 100 μL of the cell-media solution was added with a multichannel pipette. The cultures were incubated at 37° C. in an atmosphere of 5% CO2 and 95% humidified air for 24 hours. The test compounds were added to the plate as follows: test substances were diluted in DMSO to a concentration of 1 mM and 10-fold serial dilutions were performed on a separate 96-well plate. Fresh culture medium (100 μL) was added to each well of cells to constitute 200 μL of medium per well followed by 2 μL of each test agent. Compounds were tested in duplicate (n=2-8 times) at six concentrations between 0-1,000 nM or 0-10,000 nM. Following addition, cultures were incubated for an additional 72 hours.
(§3) The plates were incubated at 37° C. for either 5 minutes (L1210) or 15 minutes (HCT116 and HCT116/VM46).

[5] = tested on: HCT116/VM46 (vinblastine-resistant strain of HCT116, Pgp over-expression) cells; test: Cell growth inhibition assay, HCT116/VM46; conditions: for IC50: read-out: IC50 (nM) HCT116/VM46, resistant human colon cancer cell line, Pgp over-expression; for fold improvement over vinblastine, HCT116/VM46: relative to vinblastine
Protocol: as §1, §2, §3

[6] = tested on: L1210 (mouse lymphocytic leukemia) cells; test: Cell growth inhibition assay, L1210; assay type: cell-based; conditions: L1210 murine leukemia cell line; avg of 4-16 determinations
Protocol: as §1, §2, §3

[7] = HCT116 human colon cancer cell line, avg of 4-16 determinations, read-out: IC50 (nM) HCT116
[8] = text values in pM, read-out: IC50 HCT116

SMILES | IC50 [1] | IC50 [2] | IC50 [3] | IC50 [4, 7] | IC50 [5] | IC50 [6] | further results
CC1(C)CCCC(C)(C)N1[O] [TEMPO] | 5600 nM | 3800 nM | 4000 nM | – | – | – | –
CCC1(N=[N+]=[N-])CC2CN(CCc3c([nH]c4ccccc34)C(C(=O)OC)(c3cc4c(cc3OC)N(C)C3C(O)(C(=O)OC)C(OC(C)=O)C5(CC)C=CCN6CCC43C65)C2)C1 (stereo not shown) [Compound N3] | 5500 nM | 690 nM | 670 nM | – | – | – | –
CCC1(NC(C)=O)CC2CN(CCc3c([nH]c4ccccc34)C(C(=O)OC)(c3cc4c(cc3OC)N(C)C3C(O)(C(=O)OC)C(OC(C)=O)C5(CC)C=CCN6CCC43C65)C2)C1 (stereo not shown) [Compound 9] | 7500 nM | 90 nM | 65 nM | – | – | – | –
CCC1(NC(=O)OC)CC2CN(CCc3c([nH]c4ccccc34)C(C(=O)OC)(c3cc4c(cc3OC)N(C)C3C(O)(C(=O)OC)C(OC(C)=O)C5(CC)C=CCN6CCC43C65)C2)C1 (stereo not shown) [Compound 10] | 2600 nM | 75 nM | 50 nM | – | – | – | –
CC[C@]1(O)C[C@@H]2CN(CCc3c([nH]c4ccc(F)cc34)[C@@](C(=O)OC)(c3cc4c(cc3OC)N(C)[C@H]3[C@@](O)(C(=O)OC)[C@H](OC(C)=O)[C@]5(CC)C=CCN6CC[C@]43[C@@H]65)C2)C1 [Compound 48, reference compound] | – | – | – | 0.8 nM | 80 nM | – | fold improvement in activity over vinblastine ([2]; Gotoh et al., ACS Med. Chem. Lett. 2011): 8 fold
CC[C@]1(NC(=O)Nc2ccccc2)C[C@@H]2CN(CCc3c([nH]c4ccccc34)[C@@](C(=O)OC)(c3cc4c(cc3OC)N(C)[C@H]3[C@@](O)(C(=O)OC)[C@H](OC(C)=O)[C@]5(CC)C=CCN6CC[C@]43[C@@H]65)C2)C1 [Compound 23] | – | – | – | 5.1 nM | 390 nM | 6.5 nM | –
CC[C@]1(NC(=O)Nc2ccc(C(F)(F)F)cc2)C[C@@H]2CN(CCc3c([nH]c4ccccc34)[C@@](C(=O)OC)(c3cc4c(cc3OC)N(C)[C@H]3[C@@](O)(C(=O)OC)[C@H](OC(C)=O)[C@]5(CC)C=CCN6CC[C@]43[C@@H]65)C2)C1 [Compound 27] | – | – | – | 7.1 nM | 610 nM | 7.3 nM | –
CC[C@]1(N=C=S)C[C@@H]2CN(CCc3c([nH]c4ccccc34)[C@@](C(=O)OC)(c3cc4c(cc3OC)N(C)[C@H]3[C@@](O)(C(=O)OC)[C@H](OC(C)=O)[C@]5(CC)C=CCN6CC[C@]43[C@@H]65)C2)C1 [Compound 5, 20′-isothiocyano-vinblastine] | 7000 nM | 530 nM | 590 nM | – | – | – | –
CC[C@]1(NC(=O)N2CCOCC2)C[C@@H]2CN(CCc3c([nH]c4ccccc34)[C@@](C(=O)OC)(c3cc4c(cc3OC)N(C)[C@H]3[C@@](O)(C(=O)OC)[C@H](OC(C)=O)[C@]5(CC)C=CCN6CC[C@]43[C@@H]65)C2)C1 [Compound 41] | – | – | – | 4.5 nM | 360 nM | 5.3 nM | –
CCC1(NC(=O)NC(=O)C(Cl)(Cl)Cl)CC2CN(CCc3c([nH]c4ccccc34)C(C(=O)OC)(c3cc4c(cc3OC)N(C)C3C(O)(C(=O)OC)C(OC(C)=O)C5(CC)C=CCN6CCC43C65)C2)C1 (stereo not shown) [NHCONHCOCCl3] | 1600 nM | 6 nM | 45 nM | – | – | – | –
CC[C@]1(NC(=O)NCc2ccco2)C[C@@H]2CN(CCc3c([nH]c4ccccc34)[C@@](C(=O)OC)(c3cc4c(cc3OC)N(C)[C@H]3[C@@](O)(C(=O)OC)[C@H](OC(C)=O)[C@]5(CC)C=CCN6CC[C@]43[C@@H]65)C2)C1 [Compound 34] | – | – | – | 5.1 nM | 530 nM | 5.4 nM | –
CC[C@]1(NC(=O)N2CCC(c3ccccc3)CC2)C[C@@H]2CN(CCc3c([nH]c4ccccc34)[C@@](C(=O)OC)(c3cc4c(cc3OC)N(C)[C@H]3[C@@](O)(C(=O)OC)[C@H](OC(C)=O)[C@]5(CC)C=CCN6CC[C@]43[C@@H]65)C2)C1 [Compound 56] | – | – | – | 3.1 nM | 55 nM | 5.3 nM | –
CCC1(SC#N)CC2CN(CCc3c([nH]c4ccccc34)C(C(=O)OC)(c3cc4c(cc3OC)N(C)C3C(O)(C(=O)OC)C(OC(C)=O)C5(CC)C=CCN6CCC43C65)C2)C1 (stereo not shown) [SCN] | 2900 nM | 550 nM | 560 nM | – | – | – | –
CC[C@]1(NC(=O)NCc2ccccc2)C[C@@H]2CN(CCc3c([nH]c4ccccc34)[C@@](C(=O)OC)(c3cc4c(cc3OC)N(C)[C@H]3[C@@](O)(C(=O)OC)[C@H](OC(C)=O)[C@]5(CC)C=CCN6CC[C@]43[C@@H]65)C2)C1 [Compound 31] | – | – | – | 7.3 nM | 740 nM | 6.4 nM | –
CCC1CC2CN(CCc3c([nH]c4ccccc34)C(C(=O)OC)(c3cc4c(cc3OC)N(C)C3C(O)(C(=O)OC)C(OC(C)=O)C5(CC)C=CCN6CCC43C65)C2)C1 (stereo not shown) [Compound 3, 20′-deoxyvinblastine] | 600 nM | 60 nM | 50 nM | – | – | – | –
CCC1(NC(=O)NC)CC2CN(CCc3c([nH]c4ccccc34)C(C(=O)OC)(c3cc4c(cc3OC)N(C)C3C(O)(C(=O)OC)C(OC(C)=O)C5(CC)C=CCN6CCC43C65)C2)C1 (stereo not shown) [Compound 14] | – | – | – | 0.82 nM | 530 nM | 5.7 nM | –
CC[C@]1(NC(=O)NC(C)C)C[C@@H]2CN(CCc3c([nH]c4ccccc34)[C@@](C(=O)OC)(c3cc4c(cc3OC)N(C)[C@H]3[C@@](O)(C(=O)OC)[C@H](OC(C)=O)[C@]5(CC)C=CCN6CC[C@]43[C@@H]65)C2)C1 [Compound 17] | – | – | – | 5.7 nM | 430 nM | 5.5 nM | –
CC[C@]1(NC(=O)Nc2ccc(F)cc2)C[C@@H]2CN(CCc3c([nH]c4ccccc34)[C@@](C(=O)OC)(c3cc4c(cc3OC)N(C)[C@H]3[C@@](O)(C(=O)OC)[C@H](OC(C)=O)[C@]5(CC)C=CCN6CC[C@]43[C@@H]65)C2)C1 [Compound 24] | – | – | – | 3.9 nM | 400 nM | 5.7 nM | –
CC[C@]1(NC(=O)Nc2ccccc2OC)C[C@@H]2CN(CCc3c([nH]c4ccccc34)[C@@](C(=O)OC)(c3cc4c(cc3OC)N(C)[C@H]3[C@@](O)(C(=O)OC)[C@H](OC(C)=O)[C@]5(CC)C=CCN6CC[C@]43[C@@H]65)C2)C1 [Compound 30] | – | – | – | – | 65 nM | 4.8 nM | fold more potent than vinblastine, HCT116 [4]: ~10 fold; IC50 [4, 8]: 0.77 nM; fold improvement over vinblastine, HCT116/VM46 [5]: 10 fold
CCCNC(=O)N[C@@]1(CC)C[C@@H]2CN(CCc3c([nH]c4ccccc34)[C@@](C(=O)OC)(c3cc4c(cc3OC)N(C)[C@H]3[C@@](O)(C(=O)OC)[C@H](OC(C)=O)[C@]5(CC)C=CCN6CC[C@]43[C@@H]65)C2)C1 [Compound 16] | – | – | – | 2.7 nM | 221 nM | 6 nM | –
CCC1(NC(=O)C(F)(F)F)CC2CN(CCc3c([nH]c4ccccc34)C(C(=O)OC)(c3cc4c(cc3OC)N(C)C3C(O)(C(=O)OC)C(OC(C)=O)C5(CC)C=CCN6CCC43C65)C2)C1 (stereo not shown) [NHCOCF3] | 8100 nM | 690 nM | 660 nM | – | – | – | –
CC[C@]1(NC(=O)NC2CCCCC2)C[C@@H]2CN(CCc3c([nH]c4ccccc34)[C@@](C(=O)OC)(c3cc4c(cc3OC)N(C)[C@H]3[C@@](O)(C(=O)OC)[C@H](OC(C)=O)[C@]5(CC)C=CCN6CC[C@]43[C@@H]65)C2)C1 [Compound 21] | – | – | – | 5.4 nM | 450 nM | 5.8 nM | –
CC[C@]1(NC(=O)Nc2cccc(OC)c2)C[C@@H]2CN(CCc3c([nH]c4ccccc34)[C@@](C(=O)OC)(c3cc4c(cc3OC)N(C)[C@H]3[C@@](O)(C(=O)OC)[C@H](OC(C)=O)[C@]5(CC)C=CCN6CC[C@]43[C@@H]65)C2)C1 [Compound 29] | – | – | – | – | 80 nM | 5.4 nM | fold more potent than vinblastine, HCT116 [4]: ~10 fold; IC50 [4, 8]: 0.77 nM; fold improvement over vinblastine, HCT116/VM46 [5]: 10 fold
CC[C@]1(NC(=O)NCCc2ccccc2)C[C@@H]2CN(CCc3c([nH]c4ccccc34)[C@@](C(=O)OC)(c3cc4c(cc3OC)N(C)[C@H]3[C@@](O)(C(=O)OC)[C@H](OC(C)=O)[C@]5(CC)C=CCN6CC[C@]43[C@@H]65)C2)C1 [Compound 32] | – | – | – | 6.3 nM | 590 nM | 6.3 nM | –
CC[C@]1(NC(=O)NCc2ccccn2)C[C@@H]2CN(CCc3c([nH]c4ccccc34)[C@@](C(=O)OC)(c3cc4c(cc3OC)N(C)[C@H]3[C@@](O)(C(=O)OC)[C@H](OC(C)=O)[C@]5(CC)C=CCN6CC[C@]43[C@@H]65)C2)C1 [Compound 33] | – | – | – | 5.6 nM | 670 nM | 24 nM | –
CC[C@]1(NC(=O)Nc2ccc(C)cc2)C[C@@H]2CN(CCc3c([nH]c4ccccc34)[C@@](C(=O)OC)(c3cc4c(cc3OC)N(C)[C@H]3[C@@](O)(C(=O)OC)[C@H](OC(C)=O)[C@]5(CC)C=CCN6CC[C@]43[C@@H]65)C2)C1 [Compound 26] | – | – | – | 4.8 nM | 330 nM | 4.5 nM | –
